Key:
[1] = tested on: H. influenzae strain 33929; assay: MIC by micro-dilution method, H. influenzae strain 33929; assay type: cell-based, Haemophilus influenzae; conditions: compounds of the invention (scaffold drawing 61, 9-hydroxy); 24 hours, 35+/-2° C.
Method: (§1) Susceptibility tests can be used to quantitatively measure the in vitro activity of an antimicrobial agent against a given bacterial isolate. Compounds are tested for in vitro antibacterial activity by a micro-dilution method. Minimal Inhibitory Concentration (MIC) is determined in 96 well microtiter plates utilizing the appropriate broth medium for the observed bacterial isolates. Antimicrobial agents are serially diluted (2-fold) in DMSO to produce a concentration range from about 64 μg/ml to about 0.03 μg/ml. The diluted compounds (2 μl/well) are then transferred into sterile, uninoculated medium (0.2 mL) by use of a 96 fixed tip-pipetting station. The inoculum for each bacterial strain is standardized to approximately 5×10^5 CFU/mL by optical comparison to a 0.5 McFarland turbidity standard. The plates are inoculated with 10 μl/well of adjusted bacterial inoculum. The 96 well plates are covered and incubated at 35+/−2° C. for 24 hours in ambient air environment. Following incubation, plate wells are visually examined by Optical Density measurement for the presence of growth (turbidity). The lowest concentration of an antimicrobial agent at which no visible growth occurs is defined as the MIC.
(§2) All in vitro testing follows the guidelines described in the Approved Standards M7-A7 protocol, published by the Clinical Laboratory Standards Institute (CLSI).
(§3) Table II below provides MIC data for compounds of the invention and related species from U.S. Pat. No. 6,878,691 and US Published Application No. 2009/0118506, each of which is incorporated herein by reference. The values in the table are minimum inhibition concentration (MIC) and are expressed as ug/mL.

[2] = tested on: H. influenzae strain 49247; assay: MIC by micro-dilution method, H. influenzae strain 49247; assay type: cell-based, Haemophilus influenzae; conditions: compounds of the invention (scaffold drawing 61, 9-hydroxy); 24 hours, 35+/-2° C.
Method: as §1, §2, §3

| Structure (SMILES) | H. influenzae MIC strain 33929 [1] | H. influenzae MIC strain 49247 [2] |
| --- | --- | --- |
| CCC1OC(=O)C(C)(F)C(=O)C(C)C(OC2OC(C)CC(N(C)C)C2O)C2(C)CC(C)C(O)C(C)C(OCC(=NOCc3ccc(-c4ccno4)nc3)CO2)C1(C)O (mixture of isomers) [Compound 13] | 2 µg/mL | 1 µg/mL |
| CCC1OC(=O)C(C)(F)C(=O)C(C)C(OC2OC(C)CC(N(C)C)C2O)C2(C)CC(C)C(O)C(C)C(OCC(=NOCc3coc(-c4cccc(N)n4)n3)CO2)C1(C)O (mixture of isomers) [Compound 14] | 2 µg/mL | 1 µg/mL |
| CCC1OC(=O)C(C)(F)C(=O)C(C)C(OC2OC(C)CC(N(C)C)C2O)C2(C)CC(C)C(O)C(C)C(OCC(=NOCc3ccc(-c4nc(N)cs4)cc3)CO2)C1(C)O (mixture of isomers) [Compound 15] | 4 µg/mL | 4 µg/mL |
| CCC1OC(=O)C(C)(F)C(=O)C(C)C(OC2OC(C)CC(N(C)C)C2O)C2(C)CC(C)C(O)C(C)C(OCC(=NOCc3ccc(-c4nccs4)cn3)CO2)C1(C)O (mixture of isomers) [Compound 16] | 2 µg/mL | – |
| CCC1OC(=O)C(C)(F)C(=O)C(C)C(OC2OC(C)CC(N(C)C)C2O)C2(C)CC(C)C(O)C(C)C(OCC(=NOCc3csc(-c4cccc(N)n4)n3)CO2)C1(C)O (mixture of isomers) [Compound 17] | 1 µg/mL | 1 µg/mL |
| CCC1OC(=O)C(C)(F)C(=O)C(C)C(OC2OC(C)CC(N(C)C)C2O)C2(C)CC(C)C(O)C(C)C(OCC(=NOCc3ccc(-c4nc(N)cs4)nc3)CO2)C1(C)O (mixture of isomers) [Compound 18] | 2 µg/mL | 1 µg/mL |
| CC[C@H]1OC(=O)[C@H](C)C(=O)[C@H](C)[C@@H](O[C@@H]2O[C@H](C)C[C@H](N(C)C)[C@H]2O)[C@@]2(C)C[C@@H](C)[C@H](O)[C@H](C)C(OCC(=NOCc3ccc(-c4nc(N)ns4)cn3)CO2)[C@]1(C)O [Compound 2] | 1 µg/mL | 1 µg/mL |
| CC[C@H]1OC(=O)[C@H](C)C(=O)[C@H](C)[C@@H](O[C@@H]2O[C@H](C)C[C@H](N(C)C)[C@H]2O)[C@@]2(C)C[C@@H](C)[C@H](O)[C@H](C)C(OCC(=NOCc3ccc(-c4nc(N)cs4)cn3)CO2)[C@]1(C)O [Compound 3] | 4 µg/mL | 2 µg/mL |
| CC[C@H]1OC(=O)[C@H](C)C(=O)[C@H](C)[C@@H](O[C@@H]2O[C@H](C)C[C@H](N(C)C)[C@H]2O)[C@@]2(C)C[C@@H](C)[C@H](O)[C@H](C)C(OCC(=NOCc3ccc(-c4ccno4)nc3)CO2)[C@]1(C)O [Compound 4] | 1 µg/mL | 1 µg/mL |
| CC[C@H]1OC(=O)[C@H](C)C(=O)[C@H](C)[C@@H](O[C@@H]2O[C@H](C)C[C@H](N(C)C)[C@H]2O)[C@@]2(C)C[C@@H](C)[C@H](O)[C@H](C)C(OCC(=NOCc3ccc(-n4ccc(N)n4)cn3)CO2)[C@]1(C)O [Compound 5] | 2 µg/mL | 2 µg/mL |
| CC[C@H]1OC(=O)[C@H](C)C(=O)[C@H](C)[C@@H](O[C@@H]2O[C@H](C)C[C@H](N(C)C)[C@H]2O)[C@@]2(C)C[C@@H](C)[C@H](O)[C@H](C)C(OCC(=NOCc3cccc(-c4cccc(N)n4)n3)CO2)[C@]1(C)O [Compound 6] | 1 µg/mL | 1 µg/mL |
| CC[C@H]1OC(=O)[C@H](C)C(=O)[C@H](C)[C@@H](O[C@@H]2O[C@H](C)C[C@H](N(C)C)[C@H]2O)[C@@]2(C)C[C@@H](C)[C@H](O)[C@H](C)C(OCC(=NOCc3ccc(-n4ccc(N)n4)nc3)CO2)[C@]1(C)O [Compound 7] | 1 µg/mL | 1 µg/mL |
| CC[C@H]1OC(=O)[C@H](C)C(=O)[C@H](C)[C@@H](O[C@@H]2O[C@H](C)C[C@H](N(C)C)[C@H]2O)[C@@]2(C)C[C@@H](C)[C@H](O)[C@H](C)C(OCC(=NOCc3ncc(-c4cccc(N)n4)s3)CO2)[C@]1(C)O [Compound 8] | 2 µg/mL | 1 µg/mL |
| CC[C@H]1OC(=O)[C@H](C)C(=O)[C@H](C)[C@@H](O[C@@H]2O[C@H](C)C[C@H](N(C)C)[C@H]2O)[C@@]2(C)C[C@@H](C)[C@H](O)[C@H](C)C(OCC(=NOCc3csc(-c4cccc(N)n4)n3)CO2)[C@]1(C)O [Compound 9] | 1 µg/mL | 1 µg/mL |
| CC[C@H]1OC(=O)[C@@](C)(F)C(=O)[C@H](C)[C@@H](O[C@@H]2O[C@H](C)C[C@H](N(C)C)[C@H]2O)[C@@]2(C)C[C@@H](C)[C@H](O)[C@H](C)C(OCC(=NOCc3ccc(-c4nc(N)cs4)cn3)CO2)[C@]1(C)O [Compound 10] | 4 µg/mL | 1 µg/mL |
| CC[C@H]1OC(=O)[C@@](C)(F)C(=O)[C@H](C)[C@@H](O[C@@H]2O[C@H](C)C[C@H](N(C)C)[C@H]2O)[C@@]2(C)C[C@@H](C)[C@H](O)[C@H](C)C(OCC(=NOCc3ncc(-c4cccc(N)n4)s3)CO2)[C@]1(C)O [Compound 11] | 1 µg/mL | 1 µg/mL |
| CC[C@H]1OC(=O)[C@@](C)(F)C(=O)[C@H](C)[C@@H](O[C@@H]2O[C@H](C)C[C@H](N(C)C)[C@H]2O)[C@@]2(C)C[C@@H](C)[C@H](O)[C@H](C)C(OCC(=NOCc3cnc(-c4cccc(N)n4)s3)CO2)[C@]1(C)O [Compound 12] | 2 µg/mL | 1 µg/mL |
